The structures appear in SMILES notation.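 Cultured in 96-well plates, cells were exposed to test compound for 48 hours across five concentrations. GI50 marks 50% less growth. TGI denotes the concentration required for complete inhibition of growth.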

Among the data in PubChem BioAssay (NCI) are GI50 and TGI values, retold here.

Test systems include A498 renal; IGROV1 ovarian; K-562 leukemia; OVCAR-3 ovarian; OVCAR-8 ovarian; SF-268 CNS; SN12C renal; SR leukemia; SW-620 colon; T-47D breast.
Holding throughout (assay): NCI-60 cell line screen, 48 h

Take `Cc1cc(C)c(C#N)c(Sc2nc(C)c([N+](=O)[O-])c(C)c2C#N)n1`: the GI50 in the experiment on A498 renal is 13.1 µM; with IGROV1 ovarian it was 3.3 µM; with K-562 leukemia, 2.9 µM; with OVCAR-3 ovarian, 2.01 µM; in the experiment on OVCAR-8 ovarian it was 3.03 µM; in the experiment on SF-268 CNS, 3.26 µM. Also, the GI50 is 2.26 µM in the experiment on SN12C renal, 2.94 µM with SR leukemia, 2.07 µM in the experiment on SW-620 colon and 2.29 µM in the experiment on T-47D breast. The TGI in the experiment with A498 renal was 27 µM; in the experiment with IGROV1 ovarian it was 12.3 µM; with K-562 leukemia, > 100 µM; with OVCAR-3 ovarian, 3.88 µM; in the experiment on OVCAR-8 ovarian, 10.5 µM; with SF-268 CNS, 11.8 µM. In addition, the TGI in the experiment with SN12C renal was 5.67 µM; in the experiment on SR leukemia, > 100 µM; in the experiment with SW-620 colon it was 4.65 µM; in the experiment with T-47D breast, 5.59 µM.

`COc1ccc(-c2nc(-c3nc4ccc(C)cc4[nH]3)cc3c2[nH]c2ccccc23)cc1`: the GI50 in the experiment with A498 renal is 2.36 µM; in the experiment with IGROV1 ovarian it was 3.58 µM; with K-562 leukemia, 3.09 µM; in the experiment on OVCAR-3 ovarian it was 3.59 µM; in the experiment on OVCAR-8 ovarian it was 3.02 µM; with SF-268 CNS, 6.8 µM. Also, the GI50 in the experiment on SN12C renal was 3.96 µM; in the experiment on SR leukemia it was 2.68 µM; in the experiment on SW-620 colon it was 6.23 µM; in the experiment with T-47D breast, 3.67 µM. The TGI was > 100 µM in the experiment on A498 renal; > 100 µM in the experiment with IGROV1 ovarian; > 100 µM in the experiment on K-562 leukemia; 12 µM in the experiment with OVCAR-3 ovarian; > 100 µM in the experiment with OVCAR-8 ovarian; > 100 µM with SF-268 CNS. Also, the TGI in the experiment with SN12C renal is > 100 µM; in the experiment with SR leukemia, 27.8 µM; in the experiment on SW-620 colon, > 100 µM; in the experiment with T-47D breast, 19.2 µM.

On to `CCCOC(=O)c1c(C)n(C)c2scc[n+]12`, for which the GI50 was 24 µM in the experiment with A498 renal; 21 µM in the experiment on K-562 leukemia; 30.6 µM with OVCAR-3 ovarian; 49.2 µM in the experiment on OVCAR-8 ovarian; 48 µM in the experiment with SF-268 CNS; 59.5 µM in the experiment with SN12C renal. For the same compound, the GI50 with SR leukemia is 64 µM; in the experiment with SW-620 colon, 67.4 µM; with T-47D breast it was 38.5 µM. Besides, the TGI is 71.9 µM with A498 renal; 22.9 µM in the experiment with IGROV1 ovarian; > 100 µM in the experiment on K-562 leukemia; > 100 µM with OVCAR-3 ovarian; > 100 µM with OVCAR-8 ovarian; > 100 µM in the experiment with SF-268 CNS. The TGI in the experiment on SN12C renal, with SR leukemia, in the experiment with SW-620 colon and in the experiment on T-47D breast was > 100 µM in each case.

Turning to `COC(=O)c1c(-c2cccs2)oc(-c2cccs2)c1C(=O)OC`, the GI50 with A498 renal is 31.8 µM; in the experiment with IGROV1 ovarian, 36.2 µM; in the experiment with K-562 leukemia, 44.9 µM; in the experiment with OVCAR-3 ovarian, 30.4 µM; in the experiment on OVCAR-8 ovarian, 37.6 µM; with SF-268 CNS it was 42 µM. The GI50 with SN12C renal is 61.6 µM; in the experiment on SR leukemia, > 100 µM; with SW-620 colon, 31 µM; with T-47D breast, 28.5 µM. Besides, the TGI in the experiment on A498 renal was 94.4 µM; with IGROV1 ovarian, > 100 µM; in the experiment on K-562 leukemia, > 100 µM; in the experiment with OVCAR-3 ovarian, > 94.5 µM; with OVCAR-8 ovarian it was > 100 µM; in the experiment with SF-268 CNS, > 100 µM. Further, the TGI in the experiment with SN12C renal, in the experiment with SR leukemia, with SW-620 colon and in the experiment with T-47D breast was > 100 µM each time.

On to `O=C1CSC(c2ccccc2Cl)N1c1nnc(Cn2cnnc2)o1` (centres undefined), for which the GI50 is 12.3 µM in the experiment on A498 renal; 17 µM with IGROV1 ovarian; 3.33 µM in the experiment on K-562 leukemia; 3.4 µM in the experiment on OVCAR-3 ovarian; 30.2 µM in the experiment with OVCAR-8 ovarian; 13.9 µM in the experiment with SF-268 CNS. Besides, the GI50 with SN12C renal was 23.1 µM; with SR leukemia, 3.51 µM; in the experiment with SW-620 colon, 4.73 µM; with T-47D breast it was 3.76 µM. Besides, the TGI in the experiment with A498 renal is 52.7 µM; with IGROV1 ovarian, > 100 µM; with K-562 leukemia it was 16.2 µM; in the experiment on OVCAR-3 ovarian it was 10.7 µM; in the experiment on OVCAR-8 ovarian, > 100 µM; in the experiment with SF-268 CNS, 93.7 µM. The TGI in the experiment on SN12C renal was determined as 76.3 µM; in the experiment on SR leukemia, 19.1 µM; with SW-620 colon, 27.5 µM; with T-47D breast it was 31.9 µM.

On to `CCCCCCSSC(=S)N(CC)CC`, for which the GI50 with A498 renal was 70 µM; in the experiment with IGROV1 ovarian, 31.5 µM; in the experiment with K-562 leukemia it was 14.7 µM; with OVCAR-3 ovarian, 17.8 µM; in the experiment on OVCAR-8 ovarian, 20 µM; in the experiment on SF-268 CNS, 33.5 µM. The GI50 with SN12C renal is 18.3 µM; with SR leukemia, 0.0589 µM; in the experiment on SW-620 colon it was 18.5 µM; with T-47D breast, 25.4 µM. In addition, the TGI is > 100 µM in the experiment with A498 renal; 86.7 µM with IGROV1 ovarian; 39.5 µM in the experiment on K-562 leukemia; 34.3 µM in the experiment with OVCAR-3 ovarian; 46.6 µM in the experiment with OVCAR-8 ovarian; > 100 µM in the experiment with SF-268 CNS. Also, the TGI with SN12C renal was 40.3 µM; with SR leukemia, 29.1 µM; with SW-620 colon, 39.6 µM; with T-47D breast, > 100 µM.

As to `C=C1C(O)C2CC(C)(CO)C(=O)C2=C(CC(C)C)C12CC2` (centres undefined), the GI50 was > 100 µM with A498 renal; > 100 µM in the experiment on IGROV1 ovarian; 31.9 µM in the experiment on K-562 leukemia; 36.5 µM in the experiment with OVCAR-3 ovarian; 77.8 µM in the experiment with OVCAR-8 ovarian; > 100 µM in the experiment on SF-268 CNS. Besides, the GI50 in the experiment with SN12C renal is > 100 µM; in the experiment on SR leukemia it was 40.8 µM; with SW-620 colon, 62.3 µM; in the experiment on T-47D breast, > 100 µM. For the same compound, the TGI is > 100 µM in the experiment with A498 renal; > 100 µM in the experiment on IGROV1 ovarian; > 100 µM in the experiment on K-562 leukemia; 92.4 µM in the experiment on OVCAR-3 ovarian; > 100 µM in the experiment on OVCAR-8 ovarian; > 100 µM in the experiment on SF-268 CNS. Further, the TGI in the experiment with SN12C renal, with SR leukemia, in the experiment with SW-620 colon and in the experiment on T-47D breast was > 100 µM in each case.
